Results taken from patent US9603364B2 (Dow AgroSciences LLC, priority 2013, dated 2017).

Key:
Assay in all cases: General post-emergent herbicidal activity, foliar application
Format in all cases: in vivo
[1] = tested on: Chenopodium album L. (lambsquarters, common); settings: for pest or weed control at 70 g/ha: 70 g ai/ha; for pest or weed control at 140 g/ha: 140 g ai/ha; for pest or weed control at 280 g/ha: 280 g ai/ha; for GR80 Value CHEAL: calculated by probit analysis, dose for 80% visual injury, may be extrapolated
Outline: (§1)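 Visual injury ratings on a scale of 0 (none) to 100% (complete kill), taken 14 days after foliar post-emergence treatment of greenhouse plants and compared with untreated plants, were fitted by probit analysis to give GR20, GR50 and GR80 doses; some GR80 values are extrapolated from the slope. Sprays contained crop oil concentrate and surfactant, with rates from the highest down to 1/16×.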

[2] = tested on: Echinochloa crus-galli (L.) Beauv. (barnyardgrass); settings: for pest or weed control at 70 g/ha: 70 g ai/ha; for pest or weed control at 140 g/ha: 140 g ai/ha; for pest or weed control at 280 g/ha: 280 g ai/ha; for GR80 Value ECHCG: calculated by probit analysis, dose for 80% visual injury, may be extrapolated
Outline: as §1

[3] = tested on: Euphorbia heterophylla L. (poinsettia, wild); settings: for pest or weed control at 70 g/ha: 70 g ai/ha; for pest or weed control at 140 g/ha: 140 g ai/ha; for pest or weed control at 280 g/ha: 280 g ai/ha; for GR80 Value EPHHL: calculated by probit analysis, dose for 80% visual injury, may be extrapolated
Outline: as §1

[4] = tested on: Viola tricolor L. (pansy); settings: for pest or weed control at 70 g/ha: 70 g ai/ha; for pest or weed control at 140 g/ha: 140 g ai/ha; for pest or weed control at 280 g/ha: 280 g ai/ha; for GR80 Value VIOTR: calculated by probit analysis, dose for 80% visual injury, may be extrapolated
Outline: as §1

[5] = tested on: Amaranthus retroflexus L. (pigweed, redroot); settings: for pest or weed control at 70 g/ha: 70 g ai/ha; for pest or weed control at 140 g/ha: 140 g ai/ha; for pest or weed control at 280 g/ha: 280 g ai/ha; for GR80 Value AMARE: calculated by probit analysis, dose for 80% visual injury, may be extrapolated
Outline: as §1

[6] = tested on: Helianthus annuus L. (sunflower, common); settings: for pest or weed control at 70 g/ha: 70 g ai/ha; for pest or weed control at 140 g/ha: 140 g ai/ha; for pest or weed control at 280 g/ha: 280 g ai/ha; for GR80 Value HELAN: calculated by probit analysis, dose for 80% visual injury, may be extrapolated
Outline: as §1

Oryza sativa L. (rice) = settings: Oryza sativa, 336 h, scored after 14 days, read-out: % Visual Growth Reduction ORYSA; for plant injury at 70 g/ha: 70 g ai/ha; for plant injury at 140 g/ha: 140 g ai/ha; for plant injury at 280 g/ha: 280 g ai/ha
Outline: (§2)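 Injury rated visually 14 days after treatment on a 0 (none) to 100% (complete kill) scale against untreated plants; greenhouse-grown, sub-irrigated to avoid wash-off. Foliar spray in aqueous acetone/DMSO with isopropanol, crop oil concentrate and Triton X-155, at a highest rate and 2-fold serial dilutions down to 1/16×.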

Zea mays L. (corn) = settings: 336 h, scored after 14 days, read-out: % Visual Growth Reduction ZEAMX; for plant injury at 70 g/ha: 70 g ai/ha; for plant injury at 140 g/ha: 140 g ai/ha; for plant injury at 280 g/ha: 280 g ai/ha
Outline: as §2

[7] = Chenopodium album, 336 h, foliar post-emergent, scored after 14 days, read-out: % Visual Growth Reduction CHEAL
[8] = Echinochloa crus-galli, 336 h, foliar post-emergent, scored after 14 days, read-out: % Visual Growth Reduction ECHCG
[9] = Euphorbia heterophylla, 336 h, foliar post-emergent, scored after 14 days, read-out: % Visual Growth Reduction EPHHL
[10] = Viola tricolor, 336 h, foliar post-emergent, scored after 14 days, read-out: % Visual Growth Reduction VIOTR
[11] = Amaranthus retroflexus, 336 h, foliar post-emergent, scored after 14 days, read-out: % Visual Growth Reduction AMARE
[12] = Helianthus annuus, 336 h, foliar post-emergent, scored after 14 days, read-out: % Visual Growth Reduction HELAN

Row | Structure (SMILES) | pest or weed control at 140 g/ha [1, 7] | pest or weed control at 280 g/ha [1, 7] | GR80 Value CHEAL [1] | pest or weed control at 140 g/ha [2, 8] | pest or weed control at 280 g/ha [2, 8] | GR80 Value ECHCG [2] | pest or weed control at 140 g/ha [3, 9] | pest or weed control at 280 g/ha [3, 9] | GR80 Value EPHHL [3] | pest or weed control at 140 g/ha [4, 10] | pest or weed control at 280 g/ha [4, 10] | GR80 Value VIOTR [4] | pest or weed control at 140 g/ha [5, 11] | pest or weed control at 280 g/ha [5, 11] | GR80 Value AMARE [5] | pest or weed control at 140 g/ha [6, 12] | pest or weed control at 280 g/ha [6, 12] | GR80 Value HELAN [6] | plant injury at 280 g/ha (Oryza sativa L. (rice)) | plant injury at 280 g/ha (Zea mays L. (corn)) | other results
1 | COC(=O)c1nc(CCF)c(F)c(N)c1Cl [Compound F29, Methyl 4-amino-3-chloro-5-fluoro-6-(2-fluoroethyl)picolinate] | 90% | 90% | <17.5 g ai/ha | 10% | 60% | 432 g ai/ha | 100% | 100% | 53.9 g ai/ha | 70% | 90% | 203 g ai/ha | 100% | 100% | 55.1 g ai/ha | 90% | 90% | 60 g ai/ha | 0% | 0% | pest or weed control at 70 g/ha [1, 7]: 90%; pest or weed control at 70 g/ha [2, 8]: 0%; pest or weed control at 70 g/ha [3, 9]: 100%; pest or weed control at 70 g/ha [4, 10]: 10%; pest or weed control at 70 g/ha [5, 11]: 90%; pest or weed control at 70 g/ha [6, 12]: 80%; plant injury at 70 g/ha (Oryza sativa L. (rice)): 0%; plant injury at 140 g/ha (Oryza sativa L. (rice)): 0%; plant injury at 70 g/ha (Zea mays L. (corn)): 0%; plant injury at 140 g/ha (Zea mays L. (corn)): 0%
2 | CC(F)c1nc(C(=O)O)c(Cl)c(N)c1F (stereo not shown) [Compound F30, 4-amino-3-chloro-5-fluoro-6-(1-fluoroethyl)picolinic acid] | 95% | 100% | <17.5 g ai/ha | 65% | 80% | 239 g ai/ha | 100% | 100% | 84.9 g ai/ha | 25% | 50% | >280 g ai/ha | 100% | 100% | 40.6 g ai/ha | 90% | 90% | 59.3 g ai/ha | 0% | 100% | pest or weed control at 70 g/ha [1, 7]: 95%; pest or weed control at 70 g/ha [2, 8]: 0%; pest or weed control at 70 g/ha [3, 9]: 70%; pest or weed control at 70 g/ha [4, 10]: 10%; pest or weed control at 70 g/ha [5, 11]: 100%; pest or weed control at 70 g/ha [6, 12]: 80%; plant injury at 70 g/ha (Oryza sativa L. (rice)): 0%; plant injury at 140 g/ha (Oryza sativa L. (rice)): 0%; plant injury at 70 g/ha (Zea mays L. (corn)): 100%; plant injury at 140 g/ha (Zea mays L. (corn)): 100%
3 | COC(=O)c1nc(CCF)cc(N)c1Cl [Compound F31, methyl 4-amino-3-chloro-6-(2-fluoroethyl)picolinate] | – | – | 6.93 g ai/ha | – | – | >180 g ai/ha | – | – | <17.5 g ai/ha | – | – | 74.4 g ai/ha | – | – | <17.5 g ai/ha | – | – | 42.4 g ai/ha | – | – | pest or weed control at 180 g/ha ([1]; Chenopodium album, 336 h, 180 g ai/ha, foliar post-emergent, scored after 14 days, read-out: % Visual Growth Reduction CHEAL): 100%; pest or weed control at 180 g/ha ([2]; Echinochloa crus-galli, 336 h, 180 g ai/ha, foliar post-emergent, scored after 14 days, read-out: % Visual Growth Reduction ECHCG): 0%; pest or weed control at 180 g/ha ([3]; Euphorbia heterophylla, 336 h, 180 g ai/ha, foliar post-emergent, scored after 14 days, read-out: % Visual Growth Reduction EPHHL): 45%; pest or weed control at 180 g/ha ([4]; Viola tricolor, 336 h, 180 g ai/ha, foliar post-emergent, scored after 14 days, read-out: % Visual Growth Reduction VIOTR): 100%; pest or weed control at 180 g/ha ([5]; Amaranthus retroflexus, 336 h, 180 g ai/ha, foliar post-emergent, scored after 14 days, read-out: % Visual Growth Reduction AMARE): 15%; pest or weed control at 180 g/ha ([6]; Helianthus annuus, 336 h, 180 g ai/ha, foliar post-emergent, scored after 14 days, read-out: % Visual Growth Reduction HELAN): 90%; plant injury at 180 g/ha (Oryza sativa L. (rice); 180 g ai/ha): 0%; plant injury at 180 g/ha (Zea mays L. (corn); 180 g ai/ha): 0%
4 | Nc1c(F)c(C(F)F)nc(C(=O)O)c1Cl [Compound F32, 4-Amino-3-chloro-6-(difluoromethyl)-5-fluoropicolinic acid] | 90% | 100% | 26.9 g ai/ha | 55% | 60% | 433 g ai/ha | 30% | 50% | >280 g ai/ha | 5% | 10% | >280 g ai/ha | 55% | 85% | 251 g ai/ha | 100% | 100% | 40.8 g ai/ha | 5% | 10% | plant injury at 140 g/ha (Oryza sativa L. (rice)): 0%; plant injury at 140 g/ha (Zea mays L. (corn)): 0%
5 | COC(=O)c1nc(C(Br)CBr)cc(N)c1Cl (stereo not shown) [Compound F34, methyl 4-amino-3-chloro-6-(1,2-dibromoethyl)picolinate] | – | – | – | – | – | – | – | – | – | – | – | – | – | – | – | – | – | – | – | – | pest or weed control at 264 g/ha ([1]; Chenopodium album, 336 h, 264 g ai/ha, foliar post-emergent, scored after 14 days, read-out: % Visual Growth Reduction CHEAL): 60%; pest or weed control at 264 g/ha ([2]; Echinochloa crus-galli, 336 h, 264 g ai/ha, foliar post-emergent, scored after 14 days, read-out: % Visual Growth Reduction ECHCG): 0%; pest or weed control at 264 g/ha ([3]; Euphorbia heterophylla, 336 h, 264 g ai/ha, foliar post-emergent, scored after 14 days, read-out: % Visual Growth Reduction EPHHL): 10%; pest or weed control at 264 g/ha ([4]; Viola tricolor, 336 h, 264 g ai/ha, foliar post-emergent, scored after 14 days, read-out: % Visual Growth Reduction VIOTR): 0%; pest or weed control at 264 g/ha ([5]; Amaranthus retroflexus, 336 h, 264 g ai/ha, foliar post-emergent, scored after 14 days, read-out: % Visual Growth Reduction AMARE): 0%; pest or weed control at 264 g/ha ([6]; Helianthus annuus, 336 h, 264 g ai/ha, foliar post-emergent, scored after 14 days, read-out: % Visual Growth Reduction HELAN): 80%; plant injury at 264 g/ha (Oryza sativa L. (rice); 264 g ai/ha): 0%; plant injury at 264 g/ha (Zea mays L. (corn); 264 g ai/ha): 0%
6 | COC(=O)c1nc(CCl)cc(N)c1Cl [Compound F35, methyl 4-amino-3-chloro-6-(chloromethyl)picolinate] | – | 0% | – | – | 0% | – | – | 0% | – | – | 0% | – | – | 0% | – | – | 0% | – | 0% | 0% | –
